Results published in PubChem BioAssay AID328 (DTP/NCI, 2004).
Values joined by “and” are separate entries in the source; they are usually repeats but may differ in a detail not shown here. Equal values may be shown once. Inconclusive results and toxic doses are left out. Residues, ends and D or L forms follow the SMILES beside them. *: point of attachment. Cbz = O=C(OCc1ccccc1)*; OtBu = CC(C)(C)O*

System: BDF1 mice, P388 leukemia ip, median survival T/C
Assay: NCI In Vivo Anticancer Drug Screen. Data for tumor model P388 Leukemia (intraperitoneal) in B6D2F1 (BDF1) mice
Conditions: endpoint: median survival time, higher = longer survival
Outline: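 Antitumour effect was judged in vivo: survival in drug-treated mice, normalised to that of vehicle-dosed controls, gives the reported T/C.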

[1] = dose: 25.0 mg/kg/injection, schedule: Q04DX003 (ip), vehicle: saline with Tween-80
[2] = dose: 25.0 mg/kg/injection, schedule: Q01DX009 (ip), vehicle: saline
[3] = dose: 50.0 mg/kg/injection, schedule: Q01DX009 (ip), vehicle: saline
[4] = dose: 100.0 mg/kg/injection, schedule: Q01DX009 (ip), vehicle: saline
[5] = dose: 100.0 mg/kg/injection, schedule: Q04DX003 (ip), vehicle: saline sonified
[6] = dose: 200.0 mg/kg/injection, schedule: Q04DX003 (ip), vehicle: saline sonified
[7] = dose: 400.0 mg/kg/injection, schedule: Q04DX003 (ip), vehicle: saline sonified
[8] = dose: 50.0 mg/kg/injection, schedule: Q04DX003 (ip), vehicle: saline with Tween-80
[9] = dose: 100.0 mg/kg/injection, schedule: Q04DX003 (ip), vehicle: saline with Tween-80
[10] = dose: 50.0 mg/kg/injection, schedule: Q01DX009 (ip), vehicle: saline with Tween-80
[11] = dose: 100.0 mg/kg/injection, schedule: Q01DX009 (ip), vehicle: saline with Tween-80
[12] = dose: 12.5 mg/kg/injection, schedule: Q01DX009 (ip), vehicle: saline with Tween-80
[13] = dose: 25.0 mg/kg/injection, schedule: Q01DX009 (ip), vehicle: saline with Tween-80
[14] = dose: 200.0 mg/kg/injection, schedule: Q01DX009 (ip), vehicle: saline with Tween-80
[15] = dose: 400.0 mg/kg/injection, schedule: Q01DX009 (ip), vehicle: saline with Tween-80
[16] = dose: 200.0 mg/kg/injection, schedule: Q04DX003 (ip), vehicle: saline with Tween-80
[17] = dose: 25.0 mg/kg/injection, schedule: Q04DX003 (ip), vehicle: saline
[18] = dose: 50.0 mg/kg/injection, schedule: Q04DX003 (ip), vehicle: saline
[19] = dose: 200.0 mg/kg/injection, schedule: Q01DX009 (ip), vehicle: saline

C/C(=N\NC(=S)N1CCC(O)CC1)c1ccccn1
T/C (dose: 6.25 mg/kg/injection, schedule: Q04DX003 (ip), vehicle: saline with Tween-80): 104 % of control | T/C (dose: 12.5 mg/kg/injection, schedule: Q04DX003 (ip), vehicle: saline with Tween-80): 108 % of control | T/C [1]: 113 % of control

O=C(O)C(CSC(c1ccccc1)(c1ccccc1)c1ccccc1)N=Cc1cccs1 (stereo not given)
T/C (dose: 2.1 mg/kg/injection, schedule: Q01DX009 (ip), vehicle: saline): 118 % of control | T/C (dose: 3.1 mg/kg/injection, schedule: Q01DX009 (ip), vehicle: saline): 109 % of control | T/C (dose: 7.2 mg/kg/injection, schedule: Q01DX009 (ip), vehicle: saline): 175 % of control | T/C (dose: 11.0 mg/kg/injection, schedule: Q01DX009 (ip), vehicle: saline): 189 % of control | T/C (dose: 16.0 mg/kg/injection, schedule: Q01DX009 (ip), vehicle: saline): 163 % of control | T/C [2]: 185 % of control | T/C [3]: 200 % of control | T/C (dose: 66.0 mg/kg/injection, schedule: Q01DX009 (ip), vehicle: saline): 272 % of control and 177 % of control | T/C [4]: 250 % of control and 90 % of control and 218 % of control | T/C (dose: 150.0 mg/kg/injection, schedule: Q01DX009 (ip), vehicle: saline): 100 % of control

CCC(C)C(NC(=O)OCc1ccccc1)C(=O)NC(C(=O)NC(CCC(=O)OC(C)(C)C)C(=O)OC)C(C)C (stereo not drawn) (Cbz-Ile-Val-Glu(OtBu)-OMe; configuration not given here)
T/C [5]: 90 % of control | T/C [6]: 90 % of control | T/C [7]: 95 % of control

O=C(Nc1ccc(C2=NCCCN2)cc1)c1ccc(C(=O)Nc2ccc(C3=NCCCN3)cc2)cc1
T/C (dose: 7.2 mg/kg/injection, schedule: Q04DX003 (ip), vehicle: Klucel (hydroxypropylcellulose) (HPC)): 177 % of control | T/C (dose: 8.7 mg/kg/injection, schedule: Q04DX003 (ip), vehicle: saline with Tween-80): 152 % of control | T/C (dose: 10.8 mg/kg/injection, schedule: Q04DX003 (ip), vehicle: other): 194 % of control | T/C (dose: 12.0 mg/kg/injection, schedule: Q04DX003 (ip), vehicle: Klucel (hydroxypropylcellulose) (HPC)): 194 % of control | T/C (dose: 13.2 mg/kg/injection, schedule: Q04DX003 (ip), vehicle: saline with Tween-80): 168 % of control and 172 % of control | T/C (dose: 18.0 mg/kg/injection, schedule: Q04DX003 (ip), vehicle: other): 203 % of control | T/C (dose: 20.0 mg/kg/injection, schedule: Q04DX003 (ip), vehicle: Klucel (hydroxypropylcellulose) (HPC)): 250 % of control | T/C (dose: 20.0 mg/kg/injection, schedule: Q04DX003 (ip), vehicle: saline with Tween-80): 250 % of control and 195 % of control | T/C (dose: 30.0 mg/kg/injection, schedule: Q04DX003 (ip), vehicle: other): 97 % of control | T/C (dose: 30.0 mg/kg/injection, schedule: Q04DX003 (ip), vehicle: saline with Tween-80): 268 % of control and 272 % of control | T/C (dose: 33.3 mg/kg/injection, schedule: Q04DX003 (ip), vehicle: Klucel (hydroxypropylcellulose) (HPC)): 250 % of control

NC(=S)N/N=C\c1ccc(/C=N/NC(N)=S)cc1
T/C [1]: 111 % of control | T/C [8]: 108 % of control | T/C [9]: 100 % of control

O=C(NNc1ccccc1)C12CC3CC(CC(C3)C1)C2
T/C [10]: 96 % of control | T/C [11]: 91 % of control

CCN(CC)CCOc1ccc(C2=C(c3ccccc3)CCc3cc(OC)ccc32)cc1
T/C [12]: 90 % of control | T/C [13]: 90 % of control | T/C [10]: 95 % of control and 118 % of control

CC1(O)c2ccccc2-c2nc3ccccc3nc21 (stereo not given)
T/C [11]: 104 % of control | T/C [14]: 100 % of control | T/C [15]: 118 % of control

O=C(O)c1csc(-c2csc(CCNC(=O)C(F)(F)F)n2)n1
T/C [10]: 94 % of control | T/C [11]: 93 % of control | T/C [14]: 103 % of control

CC(C)CCC[C@@H](C)[C@H]1CC[C@H]2[C@@H]3CC=C4C[C@@H](O)CC[C@]4(C)[C@H]3CC[C@]12C
T/C (dose: 100.0 mg/kg/injection, schedule: Q01DX009 (ip), vehicle: other): 106 % of control | T/C (dose: 200.0 mg/kg/injection, schedule: Q01DX009 (ip), vehicle: other): 103 % of control | T/C (dose: 400.0 mg/kg/injection, schedule: Q01DX009 (ip), vehicle: other): 89 % of control | T/C (dose: 800.0 mg/kg/injection, schedule: Q01DX009 (ip), vehicle: other): 105 % of control

CCCCCCCCSP(=S)(N1CC1)N1CC1
T/C [11]: 90 % of control | T/C [9]: 88 % of control | T/C [14]: 100 % of control | T/C [16]: 94 % of control | T/C [15]: 95 % of control | T/C (dose: 400.0 mg/kg/injection, schedule: Q04DX003 (ip), vehicle: saline with Tween-80): 88 % of control

OCC(I)C(CO)[n+]1ccccc1 (stereo not given)
T/C (dose: 12.5 mg/kg/injection, schedule: Q01DX009 (ip), vehicle: saline): 107 % of control | T/C (dose: 12.5 mg/kg/injection, schedule: Q04DX003 (ip), vehicle: saline): 88 % of control | T/C [2]: 107 % of control | T/C [17]: 103 % of control | T/C [18]: 100 % of control

CC(C)(C)c1cc(CO)c(Sc2c(CO)cc(C(C)(C)C)cc2CO)c(CO)c1
T/C (dose: 400.0 mg/kg/injection, schedule: Q01DX001 (ip), vehicle: saline with Tween-80): 90 % of control

COCCCC/C(=N\OCCN)c1ccc(C(F)(F)F)cc1
T/C [3]: 103 % of control | T/C [4]: 112 % of control | T/C [19]: 108 % of control

CCC(c1ccc(O)cc1)C(CC)c1ccc(OC)cc1 (stereo not given)
T/C [10]: 104 % of control | T/C [11]: 118 % of control | T/C [14]: 109 % of control

c1ccc2c(NCCCCCCNc3c4ccccc4nc4ccccc34)c3ccccc3nc2c1
T/C (dose: 0.31 mg/kg/injection, schedule: Q01DX009 (ip), vehicle: lactic acid): 110 % of control | T/C (dose: 0.62 mg/kg/injection, schedule: Q01DX009 (ip), vehicle: lactic acid): 123 % of control | T/C (dose: 1.25 mg/kg/injection, schedule: Q01DX009 (ip), vehicle: lactic acid): 163 % of control | T/C (dose: 2.5 mg/kg/injection, schedule: Q01DX009 (ip), vehicle: lactic acid): 180 % of control | T/C (dose: 5.0 mg/kg/injection, schedule: Q01DX009 (ip), vehicle: lactic acid): 178 % of control

CCn1c(O)c(C=N)c(=O)n(CC)c1=O
T/C [2]: 100 % of control | T/C [17]: 96 % of control | T/C [3]: 104 % of control | T/C [18]: 100 % of control | T/C (dose: 100.0 mg/kg/injection, schedule: Q04DX003 (ip), vehicle: saline): 103 % of control

COC(=O)C(C)(OC)OC
T/C [4]: 100 % of control | T/C [19]: 100 % of control | T/C (dose: 400.0 mg/kg/injection, schedule: Q01DX009 (ip), vehicle: saline): 100 % of control

O=C(Nc1ccccc1F)C12CC3CC(CC(C3)C1)C2
T/C [10]: 92 % of control | T/C [11]: 96 % of control | T/C [14]: 96 % of control

c1ccc(CSc2ncnc3nc[nH]c23)nc1
T/C (dose: 50.0 mg/kg/injection, schedule: Q01DX009 (ip), vehicle: saline sonified): 100 % of control | T/C [8]: 105 % of control | T/C (dose: 100.0 mg/kg/injection, schedule: Q01DX009 (ip), vehicle: saline sonified): 111 % of control | T/C [9]: 100 % of control | T/C [16]: 100 % of control

S=c1[nH]nc(Nc2ccccc2Cl)s1
T/C [10]: 100 % of control | T/C [11]: 90 % of control | T/C [14]: 100 % of control

O=C1CSCC(=O)C1
T/C (dose: 100.0 mg/kg/injection, schedule: Q04DX002 (ip), vehicle: saline with Tween-80): 94 % of control | T/C (dose: 200.0 mg/kg/injection, schedule: Q04DX002 (ip), vehicle: saline with Tween-80): 96 % of control | T/C (dose: 400.0 mg/kg/injection, schedule: Q04DX002 (ip), vehicle: saline with Tween-80): 96 % of control

COc1ccc2c(c1)CCC(CC(C)=O)C2=O (stereo not given)
T/C [5]: 104 % of control | T/C [6]: 104 % of control | T/C [7]: 104 % of control

CCC(=O)/C=C/C1=C(C)CCCC1(C)C
T/C [8]: 104 % of control | T/C [9]: 104 % of control | T/C [16]: 95 % of control

Cc1c(C=[N+]2CCCCC2)c2ccccc2n1C
T/C (dose: 6.25 mg/kg/injection, schedule: Q01DX009 (ip), vehicle: saline with Tween-80): 96 % of control | T/C [12]: 105 % of control | T/C [13]: 93 % of control | T/C [10]: 99 % of control
